Experimental data as given in patent publication US10703764B2, “Benzopiperazine compositions as BET bromodomain inhibitors” (FORMA Therapeutics, Inc., priority 2013, dated 2020).

How the values were obtained:
[1] = tested on: MV4-11 cells; assay: Oncology cell growth assay (3-day proliferation, CellTiter-Glo); format: cell-based; conditions: Homo sapiens, MV4-11, 72 h, AML cell line MV4-11, 72 hours, compounds grouped by IC50 range, read-out: MV4-11 IC50 (inhibition of proliferation, gIC50)
Summary of the method: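 A 3-day proliferation test used MV4-11 cells seeded at 3000 per well with eight compound concentrations (10 μM top, 3-fold dilution) at 37° C in 5% CO2. CellTiter-Glo luminescence defined viable cell signal. A four-parameter logistic curve against DMSO and background wells gave the gIC50.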

[2] = target: T1, BRD4 BD1 (Homo sapiens, UniProt O60885); assay: AlphaScreen binding assay, BRD4 Bromodomain 1
T1 construct: made in house
Summary of the method: (§1)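 Compound dilution series were mixed with His-tagged BRD4 bromodomain and biotinylated tetra-acetylated H4 (1-21) peptide at pH 7.3 (BD1 and peptide at 50 nM, BD2 and peptide at 100 nM). Donor and acceptor beads were then added, and plates were equilibrated at least 1 h before reading. IC50 values were fitted with a four-parameter logistic model.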

[3] = target: T2, BRD4 BD2 (Homo sapiens, UniProt O60885); assay: AlphaScreen binding assay, BRD4 Bromodomain 2
T2 construct: made in house
Summary of the method: as §1

Structure (SMILES) | IC50 [1] [nM] | IC50 [2] [nM] | IC50 [3] [nM]
CC(=O)N1c2ccc(-c3ccc(N4CCOCC4)cc3)cc2N(C(=O)C2CCC2)C[C@@H]1C [Example I-1059] | 100 to 500 | 1000 to 10000 | 50 to 500
CCOC(=O)N1C[C@H](C)N(C(C)=O)c2ccc(-c3ccc(N4CCOCC4)cc3)cc21 [Example I-1060] | > 500 | 1000 to 10000 | 50 to 500
CC(=O)N1c2ccc(-c3ccc(N4CCOCC4)cc3)cc2N(C(=O)OC(C)C)C[C@@H]1C [Example I-1061] | > 500 | 1000 to 10000 | 50 to 500
CC(=O)N1c2ccc(-c3ccc(S(=O)(=O)C(C)C)cc3)cc2N(C(=O)C2CC2)C[C@@H]1C [Example I-1062] | > 500 | 1000 to 10000 | 50 to 500
CC(=O)N1c2ccc(-c3ccc(S(=O)(=O)C(C)C)cc3)cc2N(C(=O)C2CCC2)C[C@@H]1C [Example I-1063] | > 500 | 1000 to 10000 | 50 to 500
CCOC(=O)N1C[C@H](C)N(C(C)=O)c2ccc(-c3ccc(S(=O)(=O)C(C)C)cc3)cc21 [Example I-1064] | > 500 | 1000 to 10000 | 50 to 500
CC(=O)N1c2ccc(-c3ccc(S(=O)(=O)C(C)C)cc3)cc2N(C(=O)OC(C)C)C[C@@H]1C [Example I-1065] | 100 to 500 | 100 to 1000 | 50 to 500
CC(=O)N1c2ccc(-c3ccc(S(N)(=O)=O)cc3)cc2N(C(=O)C2CC2)C[C@@H]1C [Example I-1066] | > 500 | 1000 to 10000 | 50 to 500
CC(=O)N1c2ccc(-c3ccc(S(N)(=O)=O)cc3)cc2N(C(=O)C2CCC2)C[C@@H]1C [Example I-1067] | > 500 | > 10000 | 50 to 500
CCOC(=O)N1C[C@H](C)N(C(C)=O)c2ccc(-c3ccc(S(N)(=O)=O)cc3)cc21 [Example I-1068] | > 500 | 1000 to 10000 | 50 to 500
CC(=O)N1c2ccc(-c3ccc(S(N)(=O)=O)cc3)cc2N(C(=O)OC(C)C)C[C@@H]1C [Example I-1069] | 100 to 500 | 100 to 1000 | 50 to 500
CCCS(=O)(=O)c1ccc(-c2ccc3c(c2)N(C(=O)C2CC2)C[C@H](C)N3C(C)=O)cc1 [Example I-1070] | 100 to 500 | 1000 to 10000 | 50 to 500
CCCS(=O)(=O)c1ccc(-c2ccc3c(c2)N(C(=O)C2CCC2)C[C@H](C)N3C(C)=O)cc1 [Example I-1071] | 100 to 500 | 1000 to 10000 | 50 to 500
CCCS(=O)(=O)c1ccc(-c2ccc3c(c2)N(C(=O)OCC)C[C@H](C)N3C(C)=O)cc1 [Example I-1072] | 100 to 500 | 100 to 1000 | 50 to 500
CCCS(=O)(=O)c1ccc(-c2ccc3c(c2)N(C(=O)OC(C)C)C[C@H](C)N3C(C)=O)cc1 [Example I-1073] | 100 to 500 | 100 to 1000 | 50 to 500
CC(=O)N1c2ccc(-c3ccc(S(=O)(=O)CC4CC4)cc3)cc2N(C(=O)C2CC2)C[C@@H]1C [Example I-1074] | > 500 | 1000 to 10000 | 50 to 500
CC(=O)N1c2ccc(-c3ccc(S(=O)(=O)CC4CC4)cc3)cc2N(C(=O)C2CCC2)C[C@@H]1C [Example I-1075] | > 500 | 1000 to 10000 | 50 to 500
CCOC(=O)N1C[C@H](C)N(C(C)=O)c2ccc(-c3ccc(S(=O)(=O)CC4CC4)cc3)cc21 [Example I-1076] | > 500 | 1000 to 10000 | 50 to 500
CC(=O)N1c2ccc(-c3ccc(S(=O)(=O)CC4CC4)cc3)cc2N(C(=O)OC(C)C)C[C@@H]1C [Example I-1077] | 100 to 500 | 1000 to 10000 | 50 to 500
CC(=O)N1c2ccc(-c3ccc(S(=O)(=O)CC(C)C)cc3)cc2N(C(=O)C2CC2)C[C@@H]1C [Example I-1078] | 100 to 500 | 1000 to 10000 | 50 to 500
CC(=O)N1c2ccc(-c3ccc(S(=O)(=O)CC(C)C)cc3)cc2N(C(=O)C2CCC2)C[C@@H]1C [Example I-1079] | > 500 | 1000 to 10000 | 50 to 500
CCOC(=O)N1C[C@H](C)N(C(C)=O)c2ccc(-c3ccc(S(=O)(=O)CC(C)C)cc3)cc21 [Example I-1080] | > 500 | 1000 to 10000 | 50 to 500
CC(=O)N1c2ccc(-c3ccc(S(=O)(=O)CC(C)C)cc3)cc2N(C(=O)OC(C)C)C[C@@H]1C [Example I-1081] | > 500 | 1000 to 10000 | 50 to 500
CC(=O)N1c2ccc(-c3ccc(S(C)(=O)=O)c(F)c3)cc2N(C(=O)C2CC2)C[C@@H]1C [Example I-1082] | > 500 | 1000 to 10000 | 50 to 500
CC(=O)N1c2ccc(-c3ccc(S(C)(=O)=O)c(F)c3)cc2N(C(=O)C2CCC2)C[C@@H]1C [Example I-1083] | > 500 | 1000 to 10000 | 50 to 500

Results, then the compound that gave them:

IC50 [1] [nM] | IC50 [2] [nM] | IC50 [3] [nM] | Structure (SMILES)
> 500 | 1000 to 10000 | 50 to 500 | CCOC(=O)N1C[C@H](C)N(C(C)=O)c2ccc(-c3ccc(S(C)(=O)=O)c(F)c3)cc21 [Example I-1084]
> 500 | 1000 to 10000 | 50 to 500 | CC(=O)N1c2ccc(-c3ccc(S(C)(=O)=O)c(F)c3)cc2N(C(=O)OC(C)C)C[C@@H]1C [Example I-1085]
> 500 | 1000 to 10000 | 50 to 500 | CC(=O)N1c2ccc(-c3cccc(S(=O)(=O)C4CC4)c3)cc2N(C(=O)C2CC2)C[C@@H]1C [Example I-1086]
> 500 | 1000 to 10000 | 50 to 500 | CC(=O)N1c2ccc(-c3cccc(S(=O)(=O)C4CC4)c3)cc2N(C(=O)C2CCC2)C[C@@H]1C [Example I-1087]
> 500 | 1000 to 10000 | 50 to 500 | CCOC(=O)N1C[C@H](C)N(C(C)=O)c2ccc(-c3cccc(S(=O)(=O)C4CC4)c3)cc21 [Example I-1088]
100 to 500 | 100 to 1000 | 50 to 500 | CC(=O)N1c2ccc(-c3cccc(S(=O)(=O)C4CC4)c3)cc2N(C(=O)OC(C)C)C[C@@H]1C [Example I-1089]
> 500 | 1000 to 10000 | 50 to 500 | CCS(=O)(=O)c1cccc(-c2ccc3c(c2)N(C(=O)C2CC2)C[C@H](C)N3C(C)=O)c1 [Example I-1090]
> 500 | 1000 to 10000 | 50 to 500 | CCS(=O)(=O)c1cccc(-c2ccc3c(c2)N(C(=O)C2CCC2)C[C@H](C)N3C(C)=O)c1 [Example I-1091]
> 500 | 1000 to 10000 | 50 to 500 | CCOC(=O)N1C[C@H](C)N(C(C)=O)c2ccc(-c3cccc(S(=O)(=O)CC)c3)cc21 [Example I-1092]
100 to 500 | 100 to 1000 | 50 to 500 | CCS(=O)(=O)c1cccc(-c2ccc3c(c2)N(C(=O)OC(C)C)C[C@H](C)N3C(C)=O)c1 [Example I-1093]
> 500 | 1000 to 10000 | > 500 | CC(=O)N1c2ccc(-c3cc(Cl)cc(S(C)(=O)=O)c3)cc2N(C(=O)C2CC2)C[C@@H]1C [Example I-1094]
> 500 | 1000 to 10000 | > 500 | CC(=O)N1c2ccc(-c3cc(Cl)cc(S(C)(=O)=O)c3)cc2N(C(=O)C2CCC2)C[C@@H]1C [Example I-1095]
> 500 | 1000 to 10000 | > 500 | CCOC(=O)N1C[C@H](C)N(C(C)=O)c2ccc(-c3cc(Cl)cc(S(C)(=O)=O)c3)cc21 [Example I-1096]
> 500 | 1000 to 10000 | > 500 | CC(=O)N1c2ccc(-c3cc(Cl)cc(S(C)(=O)=O)c3)cc2N(C(=O)OC(C)C)C[C@@H]1C [Example I-1097]
> 500 | 1000 to 10000 | 50 to 500 | CC(=O)N1c2ccc(-c3ccc(F)c(S(C)(=O)=O)c3)cc2N(C(=O)C2CC2)C[C@@H]1C [Example I-1098]
> 500 | 1000 to 10000 | 50 to 500 | CC(=O)N1c2ccc(-c3ccc(F)c(S(C)(=O)=O)c3)cc2N(C(=O)C2CCC2)C[C@@H]1C [Example I-1099]
> 500 | 1000 to 10000 | 50 to 500 | CCOC(=O)N1C[C@H](C)N(C(C)=O)c2ccc(-c3ccc(F)c(S(C)(=O)=O)c3)cc21 [Example I-1100]
> 500 | 1000 to 10000 | 50 to 500 | CC(=O)N1c2ccc(-c3ccc(F)c(S(C)(=O)=O)c3)cc2N(C(=O)OC(C)C)C[C@@H]1C [Example I-1101]
> 500 | 100 to 1000 | 50 to 500 | CCOC(=O)N1C[C@H](C)N(C(C)=O)c2ccc(-c3ccc(OCCS(C)(=O)=O)cc3)cc21 [Example I-1102]
> 500 | 100 to 1000 | 50 to 500 | CC(=O)N1c2ccc(-c3ccc(OCCS(C)(=O)=O)cc3)cc2N(C(=O)OC(C)C)C[C@@H]1C [Example I-1103]
100 to 500 | 1000 to 10000 | 50 to 500 | CNS(=O)(=O)c1cccc(-c2ccc3c(c2)N(C(=O)C2CC2)C[C@H](C)N3C(C)=O)c1 [Example I-1104]
> 500 | 1000 to 10000 | 50 to 500 | CNS(=O)(=O)c1cccc(-c2ccc3c(c2)N(C(=O)C2CCC2)C[C@H](C)N3C(C)=O)c1 [Example I-1105]
100 to 500 | 1000 to 10000 | 50 to 500 | CCOC(=O)N1C[C@H](C)N(C(C)=O)c2ccc(-c3cccc(S(=O)(=O)NC)c3)cc21 [Example I-1106]
